Experimental data as given in US6902903B1, “Helicobacter pylori diagnostics” (Chiron Corporation, priority 1996, dated 2005).
Read-outs that look alike come from different tables or passages of the source.

Legend:
H. pylori infection [1] = assay: Antibiotic therapy of H. pylori infection, response monitored by SIA; type: in vivo, Helicobacter pylori; conditions: individuals undergoing antibiotic regimen, determined with the SIA
Description: For the immunoblot assay, strips were processed in a batch fashion with 30 strips per batch. All steps were performed at room temperature. Each strip was numbered and then placed in a separate tube to which was added 1 ml of diluent (phosphate-buffered saline (PBS) with bovine protein stabilizers and detergents, 0.1% sodium azide and 0.05% gentamicin sulfate as preservatives) and 30 μl of a serum sample from an individual known to be infected with H. pylori Type I, suspected of being infected with H. pylori Type I or a control subject, was applied. The tubes were rocked gently for 4 h, the solution removed by aspiration, and 1 ml of fresh diluent was added to each tube. The tubes were rocked for 30 minutes, the solution removed by aspiration and 1 ml of wash buffer made from wash buffer concentrate (50×) (phosphate-buffered detergent solution with 0.01% thimerosal as a preservative) was added to each tube. The contents of each tube were emptied into a single wash vessel and the strips were washed by swirling for 20 seconds. The wash buffer was decanted and 30 ml of fresh buffer added and the process repeated. […] Strips were then read within 3 h of drying. […] The lysate and VacA and CagA bands are then scored from 0 to 4+according to how their band intensity compares to that of the IgG control bands. […]

H. pylori infection [2] = conditions: individuals undergoing antibiotic regimen for H. pylori infection; cited from earlier work
[3] = system: H. pylori antibodies in serum sample; assay: H. pylori strip immunoblot assay (SIA), band reactivity of immobilized antigens with serum samples; type: binding, human; set-up: key: band intensity 0 to 4+ vs IgG controls (low IgG = 1+, high = 3+)
Description: A. An SIA was done as follows. An H. pylori extract containing a mixture of antigens including type-common antigens was obtained from Bioseed, Inc., Hillsborough, Calif. Briefly, the extract was prepared from an H. pylori bacterium obtained from the American Type Culture Collection (ATCC) having an ATCC strain designation of ATCC 43504. The extract was prepared using detergent extraction and sonication.
The VacA and CagA type-specific antigens, described in Examples 1 and 2, respectively, were applied in discrete bands to nitrocellulose strips at concentrations of 1-2 μg/ml. The lysate including the type-common antigens was coated as another discrete band at a concentration of 0.5-1 μg/ml onto the same nitrocellulose strips. As internal controls, additional bands contained purified human IgG at a low (100-185 ng/ml) and high (500-925 ng/ml) concentration. Other strips were coated with the antigens and lysate as described above, however, on these strips, the lysate was first enhanced with the VacA and CagA antigens added to the lysate at a concentration of 0.5-1 μg/ml (VacA) and 0.5-μg/ml (CagA). FIG. 1 is a diagram of a nitrocellulose strip with the antigens as described above.
For the immunoblot assay, strips were processed in a batch fashion with 30 strips per batch. All steps were performed at room temperature. Each strip was numbered and then placed in a separate tube to which was added 1 ml of diluent (phosphate-buffered saline (PBS) with bovine protein stabilizers and detergents, 0.1% sodium azide and 0.05% gentamicin sulfate as preservatives) and 30 μl of a serum sample from an individual known to be infected with H. pylori Type I, suspected of being infected with H. pylori Type I or a control subject, was applied. The tubes were rocked gently for 4 h, the solution removed by aspiration, and 1 ml of fresh diluent was added to each tube. The tubes were rocked for 30 minutes, the solution removed by aspiration and 1 ml of wash buffer made from wash buffer concentrate (50×) (phosphate-buffered detergent solution with 0.01% thimerosal as a preservative) was added to each tube. The contents of each tube were emptied into a single wash vessel and the strips were washed by swirling for 20 seconds. The wash buffer was decanted and 30 ml of fresh buffer added and the process repeated. Residual solution was removed by aspiration and 20 ml of conjugate solution (peroxidase-labeled goat anti-human IgG (heavy and light chains), with bovine protein stabilizers, containing 0.01% thimerosal as a preservative) was added. The vessel was rotated at 110 rpm for 10 minutes, the conjugate solution was decanted and the wash step was repeated three times. Residual solution was again removed by aspiration and 20 ml of substrate/developer (4-chloro-1-napthol in methanol/phosphate-buffered hydrogen peroxide) added, followed by rotation for 15-20 minutes at 110 rpm. The solution was decanted and the strips were washed twice in distilled water. Developed strips were placed face up on absorbent paper and allowed to dry for 30 minutes in the dark. Strips were then read within 3 h of drying. The intensity of the color of the H. pylori antigen bands were assigned values ranging from −(0) to 4+using the following algorithm. The low IgG band is assigned a value of 1+, the high IgG band is assigned a value of 3+. The lysate and VacA and CagA bands are then scored from 0 to 4+according to how their band intensity compares to that of the IgG control bands.
Samples with any of the H. pylori antigen bands scoring 1+ or greater to the lysate band are considered to be positive for H. pylori infection. Reactivity of 1+ or greater to the lysate band, in addition to reactivity of 1+ or greater to the CagA and/or VacA band, is considered positive for H. pylori Type I infection. Samples showing no reactivity of 1+ or greater to any bands are considered negative. […]

antibodies to CagA = conditions: cited from earlier work
[4] = Responder to antibiotic therapy, Prebleed

Molecule | % Responders by SIA (H. pylori infection [1]) [%] | Responders (responders/tested) by SIA (H. pylori infection [1]) | Response Rate Reported (H. pylori infection [2]) [%] | Band reactivity (intensity value), therapy monitoring ([3]; Non-Responder, 8 M) | Band reactivity (intensity value), therapy monitoring ([3]; Non-Responder, 16 M) | Band reactivity (intensity value), therapy monitoring ([3]; Non-Responder, Prebleed) | Band reactivity (intensity value), therapy monitoring [3, 4] | Band reactivity (intensity value), therapy monitoring ([3]; Responder, 1 M) | Band reactivity (intensity value), therapy monitoring ([3]; Responder, 3 M) | Band reactivity (intensity value), therapy monitoring ([3]; Responder, 6 M) | Band reactivity (intensity value), therapy monitoring ([3]; Responder, 9 M) | Band reactivity (intensity value), therapy monitoring ([3]; Responder, 12 M) | patients CagA seropositive (antibodies to CagA; patients suffering from gastric ulcer) | patients CagA seropositive (antibodies to CagA; patients with duodenal ulcer or duodenitis)
Cc1ncc([N+](=O)[O-])n1CCO [Single, Metronidazole] | 20 | 1/5 | 19 | – | – | – | – | – | – | – | – | – | – | –
VacA: Recombinant 71.2 kDa fusion: 154 aa human SOD, five aa linker, VacA Gly-311 through Ile-819 of H. pylori CCUG17874 | – | – | – | 2.49 | 2.10 | 2.54 | 0.31 | 0.26 | 0.33 | 0.29 | 0.21 | 0.18 | – | –
CagA: Recombinant truncated CagA of 268 amino acids, 29.2 kDa, Glu-748 through Glu-1015, H. pylori strain Chetx-1 (protein, listed as Helicobacter pylori) MEFKNGKNKDFSKVTQAKSDLENSIKDVIFNQKITDKVDDLNQAVSVAKATGDFSRVEQALADLKNFSKEQLAQQAQKNESLNAGKKSEIYQSVKNGVNGTLVGNGLSQAEATTLSKNFSDIKKELNAKLFGNFNNNNNNGLKNSTEPIYAKVNKKKTGQVASPEEPIYTQVAKKVNAKIDRLNQIASGLGGVGKAAGFPLKRHDKVDDLSKVGRSVSPEPIYATIDDLGGPFPLKRHDKVDDLSKVGLSRNQELAQKIDNLNQAVSE | – | – | – | 0.99 | 0.90 | 1.31 | 1.92 | 1.69 | 1.09 | 0.90 | 0.73 | 0.43 | more than 70% | more than 95%
